Laboratory results published in ChEMBL document CHEMBL2390953, “Pyridinylpyrimidines selectively inhibit human methionine aminopeptidase-1” (Bioorg Med Chem, 2013).

Assays:
[1] = species on record: Homo sapiens; assay: Selectivity ratio of EC50 for human recombinant GST-6XHis-tagged full-length cytosolic METAP2 to EC50 for human recombinant full-length cytosolic METAP1
[2] = molecular target: Methionine aminopeptidase 1 (Homo sapiens, UniProt P53582)
Description: Inhibition of human recombinant full-length cytosolic METAP1 expressed in Escherichia coli BL21(DE3) using Met-Pro-p-nitroanilide as substrate after 20 mins by spectrophotometric analysis in presence of Bacillus coagulans GST-tagged proline iminopeptidase

[3] = molecular target: Methionine aminopeptidase 2 (Homo sapiens, UniProt P50579); assay: biochemical
Sequence of Methionine aminopeptidase 2 (P50579 whole entry): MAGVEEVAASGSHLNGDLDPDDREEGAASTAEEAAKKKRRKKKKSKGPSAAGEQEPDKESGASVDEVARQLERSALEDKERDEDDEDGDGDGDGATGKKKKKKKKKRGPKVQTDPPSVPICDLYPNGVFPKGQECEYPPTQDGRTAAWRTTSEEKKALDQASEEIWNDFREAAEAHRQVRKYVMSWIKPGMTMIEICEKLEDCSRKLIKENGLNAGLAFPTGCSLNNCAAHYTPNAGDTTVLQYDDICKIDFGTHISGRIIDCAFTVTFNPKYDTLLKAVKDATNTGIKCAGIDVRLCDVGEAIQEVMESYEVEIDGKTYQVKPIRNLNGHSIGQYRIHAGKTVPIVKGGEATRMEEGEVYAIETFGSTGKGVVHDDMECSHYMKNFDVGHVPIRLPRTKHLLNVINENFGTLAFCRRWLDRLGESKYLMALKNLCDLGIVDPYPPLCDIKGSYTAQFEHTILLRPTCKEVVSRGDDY
Description: Inhibition of human recombinant GST-6XHis-tagged full-length cytosolic METAP2 expressed in cabbage looper BTI-TN-5B1-4 cells using Met-Pro-p-nitroanilide as substrate after 20 mins by spectrophotometric analysis in presence of Bacillus coagulans GST-tagged proline iminopeptidase

[4] = molecular target: T1, Proline iminopeptidase (Bacillus coagulans) (UniProt P46541); assay: Inhibition of Bacillus coagulans GST-tagged proline iminopeptidase using Pro-p-nitroanilide as substrate at 100 uM relative to control; conditions: Heyndrickxia coagulans
T1 sequence (whole entry): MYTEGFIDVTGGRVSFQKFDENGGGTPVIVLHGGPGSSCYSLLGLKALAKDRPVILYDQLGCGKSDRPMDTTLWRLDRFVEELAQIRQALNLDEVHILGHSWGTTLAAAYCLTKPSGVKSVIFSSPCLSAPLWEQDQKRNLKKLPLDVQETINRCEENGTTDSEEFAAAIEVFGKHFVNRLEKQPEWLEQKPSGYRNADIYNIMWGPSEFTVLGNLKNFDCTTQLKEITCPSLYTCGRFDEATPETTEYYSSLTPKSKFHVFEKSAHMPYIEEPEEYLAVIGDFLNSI

[5] = molecular target: T1, Proline iminopeptidase (Bacillus coagulans); assay: Inhibition of Bacillus coagulans GST-tagged proline iminopeptidase using Pro-p-nitroanilide as substrate at 10 uM relative to control; conditions: Heyndrickxia coagulans

Row | inhibition [4] [%] | inhibition [5] [%] | Compound | Ratio EC50 [1] | IC50 [2] [µM] | IC50 [3] [µM]
1 | – | – | Cc1nc(-c2cccc(Cl)n2)nc(NC[C@H](NC(=O)CCCN2CCNCC2)c2ccccc2)c1Cl | > 4.2 | 7.2 | > 30
2 | – | – | Cc1nc(-c2ccc(Cl)cn2)nc(NC[C@H](NC(=O)CCCCc2ccccc2)c2ccccc2)c1Cl | > 23 | 1.3 | > 30
3 | – | – | Cc1nc(-c2ccc(Cl)cn2)nc(NC[C@H](NCCCCc2ccc(O)cc2)c2ccccc2)c1Cl | > 714 | 0.42 | > 300
4 | – | – | Cc1nc(-c2ccccn2)nc(SCCc2ccccc2)c1Cl | – | – | > 100
5 | – | – | Cc1nc(-c2ccc(Cl)cn2)nc(NC[C@H](NCCCCCc2ccccc2)c2ccccc2)c1Cl | > 138 | 0.78 | > 100
6 | – | – | Cc1nc(-c2ccc(Cl)cn2)nc(NC[C@H](NCCCCc2cccs2)c2ccccc2)c1Cl | > 789 | 0.38 | > 300
7 | – | – | Cc1nc(-c2ccc(Br)cn2)nc(NC[C@H](NC(=O)CCCN2CCNCC2)c2ccccc2)c1Cl | 161 | 0.33 | 53
8 | 97 | 27 | Cc1nc(-c2ccc(Cl)cn2)nc(NC[C@H](NCCCCc2ccc(C#N)cc2)c2ccccc2)c1Cl | 31 | 0.52 | 16
9 | – | – | Cc1nc(-c2ccc(Cl)cn2)nc(NCC(CCc2ccccc2)c2ccccc2)c1Cl (configuration not stated) | > 3180 | 0.063 | > 200
10 | – | – | Cc1nc(-c2ccc(Cl)cn2)nc(NC[C@H](NCCc2ccccc2)c2ccccc2)c1Cl | > 384 | 0.26 | > 100
11 | – | – | Cc1nc(-c2ccccn2)nc(NC[C@H](NCCCCN2CCNCC2)c2ccccc2)c1Cl | – | – | 188
12 | – | – | Cc1nc(-c2ccc(Cl)cn2)nc(NC[C@H](NCCCCn2cccc2)c2ccccc2)c1Cl | > 200 | 0.5 | > 100
13 | – | – | Cc1nc(-c2ccc([N+](=O)[O-])cn2)nc(NC[C@H](NC(=O)CCCN2CCNCC2)c2ccccc2)c1Cl | 47 | 0.3 | 14
14 | – | – | Cc1nc(-c2ccc(N3CCCC3)cn2)nc(NC[C@H](NC(=O)CCCN2CCNCC2)c2ccccc2)c1Cl | 1.1 | 1.7 | 1.1
15 | – | – | Cc1nc(-c2ccc(Cl)cn2)nc(NC[C@H](NCCCCc2ccco2)c2ccccc2)c1Cl | > 909 | 0.33 | > 300
16 | – | – | Cc1nc(-c2ccccn2)nc(NC[C@H](NC(=O)CCN2CCN(CCO)CC2)c2ccccc2)c1Cl | – | – | 114
17 | – | – | Cc1nc(-c2ccc(Cl)cn2)nc(NC[C@H](NCCCc2ccccc2)c2ccccc2)c1Cl | > 1150 | 0.26 | > 300
18 | – | – | Cc1nc(-c2ccc(Cl)cn2)nc(NCC(CCCCc2ccccc2)c2ccccc2)c1Cl (configuration not stated) | > 1000 | 0.2 | > 200
19 | – | – | Cc1nc(-c2ccc(N(C)C)cn2)nc(NC[C@H](NC(=O)CCCN2CCNCC2)c2ccccc2)c1Cl | 12 | 0.14 | 1.7
20 | – | – | Cc1nc(-c2ccc(Cl)cn2)nc(NC[C@H](NCc2ccccc2)c2ccccc2)c1Cl | 141 | 0.22 | 31
21 | – | – | Cc1nc(-c2ccccn2)nc(NC[C@H](NCCCN2CCNCC2)c2ccccc2)c1Cl | – | – | 108
22 | – | – | Cc1nc(-c2ccccn2)nc(NCCNc2cccc(C(F)(F)F)n2)c1Cl | – | – | > 100
23 | – | – | Cc1nc(-c2ccccn2)nc(N2CCN(CCO)CC2)c1Cl | – | – | > 100
24 | – | – | Cc1nc(-c2ccccn2)nc(NC2CCN(c3ncc(C(F)(F)F)cc3Cl)CC2)c1Cl | – | – | > 100
25 | – | – | Cc1nc(-c2ccccn2)nc(NC[C@H](NC(=O)CCCN2CCN(CCO)CC2)c2ccccc2)c1Cl | – | – | > 300
26 | – | – | COc1cccc(-c2nc(C)c(Cl)c(NC[C@H](NC(=O)CCCN3CCNCC3)c3ccccc3)n2)n1 | > 1.5 | 20 | > 30

Row | inhibition [4] [%] | inhibition [5] [%] | Compound | Ratio EC50 [1] | IC50 [2] [µM] | IC50 [3] [µM]
27 | – | – | Cc1nc(-c2ccc(Cl)cn2)nc(NC[C@H](NC(=O)CCCCCc2ccccc2)c2ccccc2)c1Cl | > 45 | 0.67 | > 30
28 | – | – | Cc1nc(-c2ccc(Cl)cn2)nc(NC[C@H](NC(=O)CCc2ccccc2)c2ccccc2)c1Cl | > 323 | 0.093 | > 30
29 | – | – | Cc1nc(-c2ccc(Cl)cn2)nc(NC[C@H](NC(=O)CCCN2CCNCC2)c2ccccc2)c1Cl | 33 | 0.036 | 1.2
30 | – | – | CCCOc1ccc(CCCCN[C@@H](CNc2nc(-c3ccc(Cl)cn3)nc(C)c2Cl)c2ccccc2)cc1 | > 250 | 1.2 | > 300
31 | – | – | Cc1nc(-c2ncccc2Cl)nc(NC[C@H](NC(=O)CCCN2CCNCC2)c2ccccc2)c1Cl | > 39 | 7.6 | > 300
32 | – | – | Cc1nc(-c2ccc(Cl)cn2)nc(NC[C@H](NCCCCCCc2ccccc2)c2ccccc2)c1Cl | > 42 | 0.71 | > 30
33 | – | – | Cc1nc(-c2ccc(F)cn2)nc(NC[C@H](NC(=O)CCCN2CCNCC2)c2ccccc2)c1Cl | 24 | 0.049 | 1.2
34 | – | – | Cc1nc(-c2ccc(Cl)cn2)nc(NC[C@H](NC(=O)Cc2ccccc2)c2ccccc2)c1Cl | 40 | 0.7 | 28
35 | – | – | Cc1nc(-c2ccc(Cl)cn2)nc(NC[C@H](NCCCCc2ccc3ccccc3n2)c2ccccc2)c1Cl | > 435 | 0.69 | > 300
36 | – | – | Cc1nc(-c2ccccn2)nc(NCCc2ccccc2)c1C | – | > 100 | > 100
37 | – | – | Cc1nc(-c2ccccn2)nc(NC[C@H](NCCCCN2CCN(CCO)CC2)c2ccccc2)c1Cl | – | – | 197
38 | – | – | Cc1cc(NCCc2ccccc2)nc(-c2ccccn2)n1 | – | > 100 | > 100
39 | – | – | Cc1nc(-c2ccccn2)nc(NCCNc2ccc(C(F)(F)F)cn2)c1Cl | – | – | > 100
40 | – | – | Cc1nc(-c2ccccn2)nc(NC[C@H](NC(=O)CCCN2CCNCC2)c2ccccc2)c1Cl | – | – | > 300
41 | – | – | COc1cccnc1-c1nc(C)c(Cl)c(NC[C@H](NC(=O)CCCN2CCNCC2)c2ccccc2)n1 | > 120 | 2.5 | > 300
42 | – | – | Cc1nc(-c2cccnc2)nc(NCc2ccccc2)c1Cl | – | > 100 | > 100
43 | – | – | Cc1nc(-c2cc(Cl)ccn2)nc(NC[C@H](NC(=O)CCCN2CCNCC2)c2ccccc2)c1Cl | > 411 | 0.73 | > 300
44 | – | – | Cc1nc(-c2ccccn2)nc(NC[C@H](NCCCN2CCN(CCO)CC2)c2ccccc2)c1Cl | – | – | 101
45 | – | – | Cc1nc(-c2ccc(Cl)cn2)nc(NCC(CCCc2ccccc2)c2ccccc2)c1Cl (configuration not stated) | > 1250 | 0.16 | > 200
46 | – | – | Cc1nc(-c2ccc(Cl)cn2)nc(NCC(CCCCCc2ccccc2)c2ccccc2)c1Cl (racemic) | > 87 | 2.3 | > 200
47 | – | – | Cc1nc(-c2ccc(Cl)cn2)nc(NC[C@H](NCCCCc2ccccc2)c2ccccc2)c1Cl | – | – | > 100
48 | – | – | COc1ccc(-c2nc(C)c(Cl)c(NC[C@H](NC(=O)CCCN3CCNCC3)c3ccccc3)n2)nc1 | > 1110 | 0.27 | > 300
49 | – | – | Cc1nc(-c2ccccn2)nc(SCc2ccccc2)c1Cl | – | – | > 100
50 | – | – | COc1ccnc(-c2nc(C)c(Cl)c(NC[C@H](NC(=O)CCCN3CCNCC3)c3ccccc3)n2)c1 | 26 | 0.53 | 14
51 | – | – | Cc1nc(-c2ccc(Cl)cn2)nc(NC[C@H](NCCCCc2ccc(Cl)cc2)c2ccccc2)c1Cl | > 526 | 0.57 | > 300
52 | – | – | Cc1nc(-c2ccc(Cl)cn2)nc(NC[C@H](NC(=O)CCCc2ccccc2)c2ccccc2)c1Cl | > 188 | 0.16 | > 30
